Converted amounts (≈) assume the structure as drawn.
Test system: Escherichia coli ATCC 25922
Test: Minimal Inhibitory Concentration (MIC) determination, broth microdilution (CLSI M07-A10)
Format: cell-based
Details: Escherichia coli, ATCC25922, strain Escherichia coli ATCC 25922, 18-24 hours at 35±2° C., lowest concentration for complete growth inhibition (no visible growth), read-out: Escherichia coli growth inhibition MIC
In short: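 Broth microdilution per CLSI M07-A10; compounds in 2-fold serial dilutions; inoculum from 0.5 McFarland suspension diluted 1:200 in broth. Incubated 18-24 h at 35±2° C in ambient air; MIC (μg/mL) taken as lowest concentration giving no visible growth.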

SMILES | MIC [µg/mL]
CNCC(=O)NCc1nc2cc3c(c(F)c2[nH]1)CC(CN1CCC2(CC1)CN(c1cnc4c(n1)NC(=O)CO4)C(=O)O2)C3.O=C(O)C(F)(F)F (centres unmarked) [Example 160, N-[[8-fluoro-6-[[2-oxo-3-(3-oxo-4H-pyrazino[2,3-b][1,4]oxazin-6-yl)-1-oxa-3,8-diazaspiro[4.5]decan-8-yl]methyl]-1,5,6,7-tetrahydrocyclopenta[f]benzimidazol-2-yl]methyl]-2-(methylamino)acetamide; 2,2,2-trifluoroacetic acid] | 0.5
O=C(O)C(F)(F)F.O=C1COc2ncc(N3CC4(CCN(CC5Cc6cc7nc(CNC(=O)[C@H]8CCCN8)[nH]c7c(F)c6C5)CC4)OC3=O)nc2N1 (stereo partly drawn) [Example 161, (2R)-N-[[8-fluoro-6-[[2-oxo-3-(3-oxo-4H-pyrazino[2,3-b][1,4]oxazin-6-yl)-1-oxa-3,8-diazaspiro[4.5]decan-8-yl]methyl]-1,5,6,7-tetrahydrocyclopenta[f]benzimidazol-2-yl]methyl]pyrrolidine-2-carboxamide; 2,2,2-trifluoroacetic acid] | 0.25
O=C1COc2ncc(N3CC4(CCN(CC5Cc6c(c(F)c7c(nnn7CCNC(=O)[C@H]7CCCN7)c6F)C5)CC4)OC3=O)nc2N1 (stereo partly drawn) [Example 162, (2R)-N-[2-[4,8-difluoro-6-[[2-oxo-3-(3-oxo-4H-pyrazino[2,3-b][1,4]oxazin-6-yl)-1-oxa-3,8-diazaspiro[4.5]decan-8-yl]methyl]-6,7-dihydro-5H-cyclopenta[f]benzotriazol-1-yl]ethyl]pyrrolidine-2-carboxamide] | 1 (≈ 1.53 µM)
O=C1COc2ncc(N3CC4(CCN(CC5Cc6c(c(F)c7nn(CCNC(=O)[C@H]8C[C@H](O)CN8)nc7c6F)C5)CC4)OC3=O)nc2N1 [Example 163, (2R,4S)-N-[2-[4,8-difluoro-6-[[2-oxo-3-(3-oxo-4H-pyrazino[2,3-b][1,4]oxazin-6-yl)-1-oxa-3,8-diazaspiro[4.5]decan-8-yl]methyl]-6,7-dihydro-5H-cyclopenta[f]benzotriazol-2-yl]ethyl]-4-hydroxy-pyrrolidine-2-carboxamide] | 0.5 (≈ 0.748 µM)
O=C1COc2ncc(N3CC4(CCN(CC5Cc6c(c(F)c7c(nnn7CCNC(=O)[C@H]7C[C@H](O)CN7)c6F)C5)CC4)OC3=O)nc2N1 (stereo partly drawn) [Example 164, (2R,4S)-N-[2-[4,8-difluoro-6-[[2-oxo-3-(3-oxo-4H-pyrazino[2,3-b][1,4]oxazin-6-yl)-1-oxa-3,8-diazaspiro[4.5]decan-8-yl]methyl]-6,7-dihydro-5H-cyclopenta[f]benzotriazol-1-yl]ethyl]-4-hydroxy-pyrrolidine-2-carboxamide] | 2 (≈ 2.99 µM)
CN(CCn1nc2c(F)c3c(c(F)c2n1)CC(CN1CCC2(CC1)CN(c1cnc4c(n1)NC(=O)CO4)C(=O)O2)C3)C(=O)CN.O=CO [Example 165, 2-Amino-N-[2-[4,8-difluoro-6-[[2-oxo-3-(3-oxo-4H-pyrazino[2,3-b][1,4]oxazin-6-yl)-1-oxa-3,8-diazaspiro[4.5]decan-8-yl]methyl]-6,7-dihydro-5H-cyclopenta[f]benzotriazol-2-yl]ethyl]-N-methyl-acetamide;formic acid] | 0.5
CN(C)CC(=O)NCCn1nnc2c(F)c3c(c(F)c21)CC(CN1CCC2(CC1)CN(c1cnc4c(n1)NC(=O)CO4)C(=O)O2)C3 (centres unmarked) [Example 168, N-[2-[4,8-difluoro-6-[[2-oxo-3-(3-oxo-4H-pyrazino[2,3-b][1,4]oxazin-6-yl)-1-oxa-3,8-diazaspiro[4.5]decan-8-yl]methyl]-6,7-dihydro-5H-cyclopenta[f]benzotriazol-1-yl]ethyl]-2-(dimethylamino)acetamide] | 0.5 (≈ 0.78 µM)
CN[C@H](C)C(=O)NCc1nc2cc3c(c(F)c2o1)CC(CN1CCC2(CC1)CN(c1cnc4c(n1)NC(=O)CO4)C(=O)O2)C3 (stereo partly drawn) [Example 169, (2R)—N-[[8-Fluoro-6-[[2-oxo-3-(3-oxo-4H-pyrazino[2,3-b][1,4]oxazin-6-yl)-1-oxa-3,8-diazaspiro[4.5]decan-8-yl]methyl]-6,7-dihydro-5H-cyclopenta[f][1,3]benzoxazol-2-yl]methyl]-2-(methylamino)propanamide] | 1 (≈ 1.64 µM)
